Results on nine molecules are retold here after ChEMBL document CHEMBL3046206, “Synthesis of new 4-(2,5-dimethylpyrrol-1-yl)/4-pyrrol-1-yl benzoic acid hydrazide analogs and some derived oxadiazole, triazole and pyrrole ring systems: a novel class of potential antibacterial, antifungal and antitubercular agents” (Med Chem Res, 2013).

In brackets after ≈: the same amount, converted by molar mass.

The MIC is the smallest concentration in the dilution series that meets the test's criterion for growth inhibition. The low end stands for greater potency, the high end for weaker potency. For orientation: IC50 means the concentration that gives 50% inhibition. A lower IC50 goes with higher potency.

In test [1] the test system is Staphylococcus aureus. The test can be described thus: Antibacterial activity against Staphylococcus aureus after 18 hr by broth microdilution technique. Type of test: functional. On the technique in general: Broth dilution looks for growth in wells or tubes with falling amounts of substance.
Test [2] has as its system Enterococcus faecalis. The test can be described thus: Antibacterial activity against Enterococcus faecalis after 18 hr by broth microdilution technique. The test is classed as functional.
In test [3] the test system is Bacillus subtilis. The test can be described thus: Antibacterial activity against Bacillus subtilis after 18 hr by broth microdilution technique. Type of test: functional.
In test [4] the test system is Klebsiella pneumoniae. Kind of test: Antibacterial activity against Klebsiella pneumoniae after 18 hr by broth microdilution technique. Type of test: functional.
Test [5] has as its system Escherichia coli. Kind of test: Antibacterial activity against Escherichia coli after 18 hr by broth microdilution technique. The test is classed as functional.
In test [6] the test system is Pseudomonas aeruginosa. The test can be described thus: Antibacterial activity against Pseudomonas aeruginosa after 18 hr by broth microdilution technique. Type of test: functional.
For test [7], the system named is Saccharomyces cerevisiae. The test can be described thus: Antifungal activity against Saccharomyces cerevisiae after 18 hr by broth microdilution technique. Type of test: functional.
Test [8] has as its system Candida tropicalis. The test can be described thus: Antifungal activity against Candida tropicalis after 18 hr by broth microdilution technique. The test is classed as functional.
In test [9] the test system is Aspergillus niger. Kind of test: Antifungal activity against Aspergillus niger after 18 hr by broth microdilution technique. Type of test: functional.
Test [10] relates to Mycobacterium tuberculosis. The test can be described thus: Antimycobacterial activity against Mycobacterium tuberculosis H37Rv after 21 days by broth dilution method. Type of test: functional. The conditions noted are these: 504 h.
Test [11] deals with Vero. Kind of test: Cytotoxicity against Chlorocebus aethiops (African green monkey) Vero cells after 72 hr by MTT assay. The conditions noted are these: Chlorocebus sabaeus. The test is classed as cell-based. A general note: Tetrazolium assays rely on reduction of a dye to a coloured formazan, in cell work by metabolically active cells.
Test [12] deals with A549. Kind of test: Cytotoxicity against Homo sapiens (human) A549 cells after 72 hr by MTT assay. The test is classed as cell-based. The conditions noted are these: A549, 72 h.

With `O=C(NNC(=O)c1ccc(F)c(C(F)(F)F)c1)c1ccc(-n2cccc2)cc1`, the MIC is 62.5 µg/mL (≈ 160 µM) in [1]; 31.2 µg/mL (≈ 79.9 µM) in test [2]; 16 µg/mL (≈ 40.9 µM) in test [3]; above 500 µg/mL in test [4]; 8 µg/mL (≈ 20.4 µM) in test [5]; 8 µg/mL (≈ 20.4 µM) in test [6]. Further, the MIC came out at 16 µg/mL (≈ 40.9 µM) in test [7], 4 µg/mL (≈ 10.2 µM) in [8], 8 µg/mL (≈ 20.4 µM) in [9] and 8 µg/mL (≈ 20.4 µM) in [10]. The IC50 was determined as 196 µM in [11] and 200 µM in [12].

As for `c1ccc(-c2nnc(-c3ccc(-n4cccc4)cc3)o2)cc1`, the MIC in [1] is 31.2 µg/mL (≈ 109 µM); in test [2], 31.2 µg/mL (≈ 109 µM); in test [3], 8 µg/mL (≈ 27.8 µM); in test [4] it was above 500 µg/mL; in test [5], 8 µg/mL (≈ 27.8 µM); in test [6], 8 µg/mL (≈ 27.8 µM). Also, the MIC amounted to 31.2 µg/mL (≈ 109 µM) in [7], 31.2 µg/mL (≈ 109 µM) in test [8], 31.2 µg/mL (≈ 109 µM) in [9] and 8 µg/mL (≈ 27.8 µM) in [10]. Further, the IC50 in [11] turned out to be 250 µM; in [12], 256 µM.

`Brc1ccccc1-c1nnc(-c2ccc(-n3cccc3)cc2)o1`: the MIC in test [1] is 31.2 µg/mL (≈ 85.3 µM); in test [2], 31.2 µg/mL (≈ 85.3 µM); in test [3], 8 µg/mL (≈ 21.8 µM); in test [4], above 500 µg/mL; in [5], 8 µg/mL (≈ 21.8 µM); in test [6], 8 µg/mL (≈ 21.8 µM). Besides, the MIC in [7] stood at 31.2 µg/mL (≈ 85.3 µM); in test [8], 4 µg/mL (≈ 10.9 µM); in test [9], 16 µg/mL (≈ 43.7 µM); in test [10] it was 8 µg/mL (≈ 21.8 µM). Besides, the IC50 in test [11] was 258 µM; in [12], 252 µM.

Take `Brc1ccc(-c2nnc(-c3ccc(-n4cccc4)cc3)o2)cc1`: the MIC in [1] is 31.2 µg/mL (≈ 85.3 µM); in [2], 16 µg/mL (≈ 43.7 µM); in [3] it was 4 µg/mL (≈ 10.9 µM); in test [4], above 500 µg/mL; in test [5] it was 4 µg/mL (≈ 10.9 µM); in test [6], 8 µg/mL (≈ 21.8 µM). In addition, the minimum inhibitory concentration (MIC) in test [7] was found to be 31.2 µg/mL (≈ 85.3 µM); in [8] it was 4 µg/mL (≈ 10.9 µM); in test [9], 8 µg/mL (≈ 21.8 µM); in test [10], 2 µg/mL (≈ 5.46 µM). The IC50 was 260 µM in [11] and 264 µM in test [12].

Consider `CC(=O)N1N=C(c2ccc(-n3c(C)ccc3C)cc2)OC1c1ccc(Br)cc1` (stereo not drawn), for which the MIC was 16 µg/mL (≈ 36.5 µM) in [1]; 31.2 µg/mL (≈ 71.3 µM) in [2]; 8 µg/mL (≈ 18.3 µM) in [3]; 31.2 µg/mL (≈ 71.3 µM) in test [4]; 500 µg/mL (≈ 1140 µM) in test [5]; 500 µg/mL (≈ 1140 µM) in test [6]. Besides, the MIC came out at 31.2 µg/mL (≈ 71.3 µM) in test [7], 8 µg/mL (≈ 18.3 µM) in test [8], 16 µg/mL (≈ 36.5 µM) in test [9] and 8 µg/mL (≈ 18.3 µM) in test [10]. The IC50 in test [11] and in [12] was 195 µM each time.

Turning to `CC(=O)N1N=C(c2ccc(-n3c(C)ccc3C)cc2)OC1c1c(Cl)cccc1Cl` (stereo not drawn), the MIC in test [1] was 2 µg/mL (≈ 4.67 µM); in test [2], 2 µg/mL (≈ 4.67 µM); in [3], 4 µg/mL (≈ 9.34 µM); in [4], 62.5 µg/mL (≈ 146 µM); in test [5], 16 µg/mL (≈ 37.4 µM); in [6] it was 8 µg/mL (≈ 18.7 µM). Besides, the MIC is 16 µg/mL (≈ 37.4 µM) in test [7], 4 µg/mL (≈ 9.34 µM) in [8], 4 µg/mL (≈ 9.34 µM) in test [9] and 2 µg/mL (≈ 4.67 µM) in test [10]. The figures for the IC50 in test [11] and in test [12] were 220 µM and 224 µM, respectively.

Turning to `CC(=O)N1N=C(c2ccc(-n3c(C)ccc3C)cc2)OC1c1cccc([N+](=O)[O-])c1` (stereo not drawn), the MIC in [1] came to 31.2 µg/mL (≈ 77.3 µM); in [2], 31.2 µg/mL (≈ 77.3 µM); in test [3] it was 16 µg/mL (≈ 39.6 µM); in test [4] it was 62.5 µg/mL (≈ 155 µM); in test [5], 62.5 µg/mL (≈ 155 µM); in [6], 62.5 µg/mL (≈ 155 µM). The MIC came to 31.2 µg/mL (≈ 77.3 µM) in test [7], 8 µg/mL (≈ 19.8 µM) in [8], 8 µg/mL (≈ 19.8 µM) in test [9] and 31.2 µg/mL (≈ 77.3 µM) in test [10]. For the same molecule, the IC50 in test [11] is 188 µM; in [12], 197 µM.

For `CC(=O)N1N=C(c2ccc(-n3c(C)ccc3C)cc2)OC1c1ccccc1[N+](=O)[O-]` (stereo not drawn), the MIC in test [1] worked out at 31.2 µg/mL (≈ 77.3 µM); in test [2], 31.2 µg/mL (≈ 77.3 µM); in test [3] it was 16 µg/mL (≈ 39.6 µM); in test [4], 500 µg/mL (≈ 1240 µM); in test [5] it was 500 µg/mL (≈ 1240 µM); in test [6], 500 µg/mL (≈ 1240 µM). Moreover, the MIC in [7] came to 31.2 µg/mL (≈ 77.3 µM); in [8], 8 µg/mL (≈ 19.8 µM); in [9], 8 µg/mL (≈ 19.8 µM); in test [10], 31.2 µg/mL (≈ 77.3 µM). Also, the IC50 was 175 µM in test [11] and 182 µM in [12].

In the case of `CC(=O)N1N=C(c2ccc(-n3c(C)ccc3C)cc2)OC1c1ccc(O)cc1` (stereo not drawn), the MIC worked out at 31.2 µg/mL (≈ 83.2 µM) in [1]; 31.2 µg/mL (≈ 83.2 µM) in [2]; 16 µg/mL (≈ 42.6 µM) in test [3]; 31.2 µg/mL (≈ 83.2 µM) in test [4]; 62.5 µg/mL (≈ 166 µM) in [5]; 62.5 µg/mL (≈ 166 µM) in test [6]. Further, the MIC in [7] is 31.2 µg/mL (≈ 83.2 µM); in [8] it was 8 µg/mL (≈ 21.3 µM); in test [9], 8 µg/mL (≈ 21.3 µM); in [10], 16 µg/mL (≈ 42.6 µM). In addition, the IC50 in test [11] is 187 µM; in test [12], 190 µM.
